Source: patent publication US20060040255A1, “Cell line designated KT-1 established from tongue epithelial and use thereof” (National Food Research Institute, priority 2003, published 2006)

What was measured:
[1] = target: sweet taste receptors T1r2 and T1r3 (Mus musculus, UniProt Q925D8+Q925I4); details: KT-1C cells; final concentration 5 mM; 0.5 minutes after addition
Procedure: KT-1C cells which had been washed twice in PBS(−) were incubated for 30 minutes at room temperature with 1 ml of imaging buffer (NaHCO3 22 mM, KCl 5 mM, NaH2PO4 1.25 mM, glucose 10 mM, NaCl 124 mM) to which 5 μl of Fura-2-AM (1 mM dissolved in DMSO, Molecular Probe) and 5 μl of Cremophor (Nacalai Tesque) had been added, incorporating Fura-2-AM into the cells. They were then washed twice with imaging buffer to remove any Fura-2-AM that had not been incorporated into the cells.
Next the dish was filled with 1 ml of imaging buffer to which 1 mM MgCl2 and 2 mM CaCl2 had been added, and the artificial sweetener Acesul fame K (Fluka), which is known to be a ligand for sweet taste receptors T1r2 and T1r3, was added to a final concentration of 5 mM. […] After measurement, changes over time in florescence in the various cells were converted to changes in calcium concentration by the AquaCosmos software, and graphed.

[2] = target: salt sensing channel αENaC (Mus musculus, UniProt Q61180); details: KT-1C cells
Procedure: Next they were washed twice with Na imaging buffer to remove any CoroNa-Red that had not been incorporated into the cells.
Next, the dish was filled with 1 mL of imaging buffer to which 1 mM MgCl2 and 2 mM CaCl2 had been added, and NaCl, which is known to be a salt taste channel ligand, was then added thereto to a final concentration of 50 mM. It is known that when cells with salt taste response ability (in other words, cells in which the salt sensing channel αENaC is functionally expressed) respond to NaCl (salty substance), sodium flows into the cytoplasm, and the concentration of sodium in the cytoplasm rises. Therefore, the fluorescence (580 nm) produced by CoroNa-Red when sodium flowed into the cytoplasm due to addition of NaCl was measured over time using an inverted fluorescence microscope (Leica, DMRIB) equipped with a CCD camera (Hamamatsu Photonics) controlled by AquaCosmos software (Hamamatsu Photonics). After measurement, changes over time inflorescence in the various cells were converted to changes in sodium concentration using the AquaCosmos software, and graphed.

[3] = tested on: salt taste channel αENaC; test: Hormone regulation of αENaC expression in cell line KT-1B (RT-PCR); type: cell-based, mouse; details: cell line KT-1B treated for 6 days; aldosterone 1 μM, hydrocortisone 0.2 μM; compared with progesterone 0.1 μM
Procedure: While being cultured in the presence of hydrocortisone, cell line KT-1B constantly expresses the amiloride-sensitive sodium channel alpha subunit (αENaC), which might be involved in salt taste response.
Therefore, cell line KT-1B was treated for 6 days with the hormone progesterone (0.1 μM), aldosterone (1 μM) or hydrocortisone (0.2 μM), and expression of the salt sensing channel αENaC was investigated.
RNA was extracted with Trizol solution from the treated cell line KT-1B, and cDNA was synthesized on a scale of 40 μl using the resulting 2 μg of RNA and a Super Script First Strand cDNA synthesis kit. Using 1 μl of this cDNA as the template and primers specific to salt taste channel αENaC (0.2 μM each, Seq. Nos. 13 and 14), 2.5 units of Takara Taq were added and a PCR reaction consisting of denaturation at 95° C. for 5 minutes followed by 35 cycles of 1 minute at 95° C., 1 minute at 58° C. and 2 minutes at 72° C. was performed in a 25 μl system. 8 μl of the PCR reaction liquid was electrophoresed on a 1.5% agarose gel, stained with ethidium bromide and photographed.

salt sensing channel αENaC, sequence (Q61180 whole entry): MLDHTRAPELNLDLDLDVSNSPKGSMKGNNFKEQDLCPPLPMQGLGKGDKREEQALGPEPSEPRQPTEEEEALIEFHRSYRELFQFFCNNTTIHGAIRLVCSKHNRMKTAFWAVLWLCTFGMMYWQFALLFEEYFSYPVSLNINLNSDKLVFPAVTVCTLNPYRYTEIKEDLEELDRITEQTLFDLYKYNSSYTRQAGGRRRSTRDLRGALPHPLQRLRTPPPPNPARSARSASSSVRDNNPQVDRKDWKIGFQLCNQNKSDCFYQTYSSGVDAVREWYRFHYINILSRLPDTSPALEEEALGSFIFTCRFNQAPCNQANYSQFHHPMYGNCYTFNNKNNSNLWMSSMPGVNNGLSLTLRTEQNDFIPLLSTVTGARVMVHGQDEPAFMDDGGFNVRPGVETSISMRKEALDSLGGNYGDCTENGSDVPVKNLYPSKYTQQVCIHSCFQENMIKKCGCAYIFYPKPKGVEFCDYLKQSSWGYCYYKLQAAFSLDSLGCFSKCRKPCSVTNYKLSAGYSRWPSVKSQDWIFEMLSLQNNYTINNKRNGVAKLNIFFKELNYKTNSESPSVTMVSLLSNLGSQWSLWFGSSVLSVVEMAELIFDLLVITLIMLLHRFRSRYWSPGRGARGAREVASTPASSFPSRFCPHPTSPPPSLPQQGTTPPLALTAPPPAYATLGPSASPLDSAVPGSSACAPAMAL
sweet taste receptors T1r2 and T1r3, sequence (Q925I4 20-843): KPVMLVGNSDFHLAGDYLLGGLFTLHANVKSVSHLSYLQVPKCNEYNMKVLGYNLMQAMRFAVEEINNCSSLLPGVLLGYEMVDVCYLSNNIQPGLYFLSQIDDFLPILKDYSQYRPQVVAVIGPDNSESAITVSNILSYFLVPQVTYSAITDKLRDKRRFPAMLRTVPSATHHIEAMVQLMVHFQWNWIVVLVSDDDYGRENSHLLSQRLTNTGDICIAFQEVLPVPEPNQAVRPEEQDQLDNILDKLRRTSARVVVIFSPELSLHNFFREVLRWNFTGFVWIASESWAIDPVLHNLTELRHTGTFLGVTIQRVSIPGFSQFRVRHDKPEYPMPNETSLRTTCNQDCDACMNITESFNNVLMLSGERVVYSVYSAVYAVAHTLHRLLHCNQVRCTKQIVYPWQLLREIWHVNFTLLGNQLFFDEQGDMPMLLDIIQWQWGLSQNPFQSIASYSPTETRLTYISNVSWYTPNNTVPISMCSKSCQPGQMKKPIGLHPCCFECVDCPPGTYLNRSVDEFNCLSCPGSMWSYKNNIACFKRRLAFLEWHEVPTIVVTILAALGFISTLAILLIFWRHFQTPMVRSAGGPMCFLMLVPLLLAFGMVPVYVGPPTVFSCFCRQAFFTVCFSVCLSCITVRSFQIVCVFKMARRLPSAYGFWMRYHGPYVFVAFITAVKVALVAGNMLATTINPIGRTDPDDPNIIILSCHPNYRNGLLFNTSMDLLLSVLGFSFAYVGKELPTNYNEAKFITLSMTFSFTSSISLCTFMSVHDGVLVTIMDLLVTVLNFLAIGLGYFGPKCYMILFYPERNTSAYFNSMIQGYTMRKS
sweet taste receptors T1r2 and T1r3, sequence (Q925D8 21-858): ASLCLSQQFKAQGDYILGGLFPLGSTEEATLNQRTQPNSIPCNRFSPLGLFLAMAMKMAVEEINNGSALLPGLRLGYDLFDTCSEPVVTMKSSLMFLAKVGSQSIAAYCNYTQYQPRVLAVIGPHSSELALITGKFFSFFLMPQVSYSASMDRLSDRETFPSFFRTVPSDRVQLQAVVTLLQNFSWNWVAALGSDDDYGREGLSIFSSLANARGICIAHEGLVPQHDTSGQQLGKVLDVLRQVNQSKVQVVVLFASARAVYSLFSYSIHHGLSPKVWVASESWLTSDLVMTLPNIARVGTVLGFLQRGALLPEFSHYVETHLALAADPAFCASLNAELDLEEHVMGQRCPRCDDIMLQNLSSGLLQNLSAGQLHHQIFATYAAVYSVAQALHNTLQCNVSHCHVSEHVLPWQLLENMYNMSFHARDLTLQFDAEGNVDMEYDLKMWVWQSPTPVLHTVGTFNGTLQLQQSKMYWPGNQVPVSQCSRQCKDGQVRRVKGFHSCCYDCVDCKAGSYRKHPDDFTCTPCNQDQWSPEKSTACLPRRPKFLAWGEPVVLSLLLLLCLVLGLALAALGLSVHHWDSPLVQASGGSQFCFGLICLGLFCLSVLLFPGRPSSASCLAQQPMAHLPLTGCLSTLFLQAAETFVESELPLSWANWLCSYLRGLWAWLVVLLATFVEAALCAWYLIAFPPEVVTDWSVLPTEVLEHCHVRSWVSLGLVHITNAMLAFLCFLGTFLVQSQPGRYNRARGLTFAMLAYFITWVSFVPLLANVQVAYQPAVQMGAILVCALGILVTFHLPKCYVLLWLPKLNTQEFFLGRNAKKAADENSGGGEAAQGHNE

CC1=CC(=O)[N-]S(=O)(=O)O1.[K+] [Acesulfame K]
intercellular calcium concentration (Fura-2 fluorescence) after addition [1]: rise in intercellular calcium concentration

[Cl-].[Na+] [NaCl]
dependence of intercellular sodium concentration on added concentration ([2]; 50 mM then 150 mM added): affected by the concentration of added NaCl | intercellular sodium concentration (CoroNa-Red fluorescence) after addition ([2]; final concentration 50 mM, 0.5 minutes after addition): rise in intercellular sodium concentration

C[C@]12CCC(=O)C=C1CC[C@@H]1[C@@H]2[C@@H](O)C[C@]2(C=O)[C@@H](C(=O)CO)CC[C@@H]12 [aldosterone]
amount of expression of the salt taste channel αENaC (mRNA, RT-PCR) [3]: greater

C[C@]12CCC(=O)C=C1CC[C@@H]1[C@@H]2[C@@H](O)C[C@@]2(C)[C@H]1CC[C@]2(O)C(=O)CO [hydrocortisone]
amount of expression of the salt taste channel αENaC (mRNA, RT-PCR) [3]: greater
